Test results from patent publication US20190282550A1, “METHOD OF TREATMENT” (The University of Melbourne, priority 2016, published 2019).

Columns and labels:
HTR8 [1] = assay: xCELLigence placenta cell proliferation; type: cell-based; details: for proliferation at 48 h post plating: compared to control
Protocol: The effect of vinorelbine on placenta cell (HTR8) proliferation was assessed using xCELLigence (C).

[2] = test system: primary first trimester placenta cells; assay: MTS cell viability assay, primary first trimester placenta cells (FIG. 1); type: cell-based, human
Protocol: For in vitro experiments, methotrexate and vinorelbine are administered at different doses (from 10 nM to 100,000 nM). When used, gefitinib is combined with methotrexate at 8 μM. Cells/tissues are treated for 24 hours and 48 hours. Methodology for the following standard techniques are: Tissue culture (Nilsson et al. (2013) Obstet Gynecol 122(4):737-44), RNA, qPCR, immunohistochemistry (Nilsson et al. (2013) supra; Onda et al. (2015) Hypertension:10.1161/hyptertensionaha.114.04781; Kaitu'u-Lino et al. Pregnancy Hypertension: An International Journal of Women's Cardiovascular Health 2014 placenta explants (Brownfoot et al. (2015) Hypertension), FACs sorting (Nilsson et al. (2013) supra), trophoblast purification ((Nilsson et al. (2013) supra; Onda et al. (2015) supra; Kaitu'u Lino et al. (2014) supra) and western blots (Onda et al. (2015) supra).
First trimester placenta tissue are obtained from women who are undergoing a termination of pregnancy. Placenta cells are purified as previously described (Nilsson et al. (2013) supra). They are treated with different doses (10-100,000 nM) of vinorelbine, methotrexate, methotrexate+gefitinib, gefitinib alone (and vehicle control). Cell viability is measured by MTS assay (see FIG. 1). To compare the relative potencies, the EC50 is calculated for the drugs (dose that induces 50% cell death).
VB doses were 10,000 times lower than MXT.

HTR8 [3] = assay: MTS cell viability assay, HTR8 placenta cell line; type: cell-based
Protocol: (§1) The ability for vinorelbine to reduce placenta cell viability was assessed in two placenta cell lines (A;HTR8, B; JEG3) using a MTS cell viability assay.

JEG3 = assay: MTS cell viability assay, JEG3 placenta cell line; type: cell-based
Protocol: as §1

HTR8 cells [4] = assay: FACs analysis of cell cycle progression; type: cell-based; details: 1 μM and 10 μM
Protocol: The effect of Vinorelbine on cell cycle progression in HTR8 cells was assessed using FACs analysis (FIGS. 8A through G). […] The proportion of cells in G1, S and G2 is graphically represented in n=3 replicates (D).

[5] = test system: first trimester placenta explants; assay: First trimester placenta explants, M30 cytodeath immunohistochemistry; type: cell-based, human; details: compared to methotrexate±gefitinib
Protocol: First trimester placenta explants are prepared and treated with the same drugs as above. After culture cells are fixed in paraformadehyde and immunohistochemistry staining performed with an M30 cytodeath antibody (detects apoptotic cell death). hCG secretion in to the cell culture media will be measured.

placenta cells = assay: Apoptosis versus necrosis in placenta cells; type: cell-based
Protocol: Apoptosis incites less of an inflammatory response that may otherwise injure local tissues. In this Example, the number of apoptotic cells after treatment with vinorelbine is assessed.

HTR8 cells [6] = test system: HTR8 cells
[7] = oral, 60 mg/m^2 once a week; cited from earlier work
[8] = Mouse fertility breeding experiments; details: 5 mg/kg intravenous to female mice 4 weeks prior to breeding
Protocol: Vinorelbine is administered by tail vein injection to wild type swiss mice. The drug (or vehicle controls) is administered by tail vein twice weekly (i.e. approximately mirroring the frequency of dosing for the xenograft studies). The middle dose that was effective in regressing tumor size (2.5 mg/kg) is to be used. After one month the mice are paired for breeding. It is proposed to sacrifice mice at about day 19 of pregnancy.
Parameters measured include 1) Number of fetuses' and implantations sites; 2) fetal crown rump length; 3) fetal weight; 4) placenta weights.

placenta cells (JEG3) = assay: Mouse xenograft model, placenta cells (JEG3) grafted subcutaneously
human Fallopian tubes = assay: Human Fallopian tubes treated ex vivo, western blot of apoptotic markers
Text: Fallopian tube cells are obtained from (non pregnant) women undergoing hysterectomy and explants prepared as previously published (Shaw et al. (2011) Am J Pathol 178(1):253-60). […] Investigators stain the explants with M30 antibody by immunohistochemistry (measures late apoptosis) and obtain tissue lysates and perform western blot to measure the following proteins involved in apoptosis (Elmore (2007) supra): Bcl-2, Bax, Bid and Bim and quantify by densiometric analysis.
Human Fallopian tubes were obtained at hysterectomy (from women of child-bearing age).

[9] = increasing doses, intravenously, vs. vehicle
[10] = western blot densitometry, n=3 tubes

SMILES: CN(Cc1cnc2nc(N)nc(N)c2n1)c1ccc(C(=O)N[C@@H](CCC(=O)O)C(=O)O)cc1 [methotrexate]
- proliferation at 48 h post plating (HTR8 [1]): no significant effect

SMILES: CCC1=C[C@@H]2CN(C1)Cc1c([nH]c3ccccc13)[C@@](C(=O)OC)(c1cc3c(cc1OC)N(C)[C@H]1[C@@](O)(C(=O)OC)[C@H](OC(C)=O)[C@]4(CC)C=CCN5CC[C@]31[C@@H]54)C2 [vinorelbine]
- inducing death of primary first trimester placenta cells ([2]; compared to methotrexate±gefitinib): significantly more effective in inducing death
- potency relative to methotrexate ([2]; placenta cell death): 1,000 to 10,000 times
- cell viability (HTR8 [3]): significant dose dependent reduction in cell viability
- cell viability (JEG3): significant dose dependent reduction in cell viability
- proliferation at 48 h post plating (HTR8 [1]): proliferation was reduced at 1, 10 and 100 μM
- HTR8 proliferation (HTR8 [1]; xCELLigence, over time): reduced HTR8 proliferation in a dose-dependent manner
- cell cycle progression (HTR8 cells [4]): inhibits cell cycle progression, with cells arrested in the G2 phase of mitosis
- cells halted at G2 (HTR8 cells [4]; compared to control, n=3 replicates): significantly more cells halted at G2
- M30 staining of placenta explants [5]: more intense M30 staining of placenta explants at a lower doses
- mode of placenta cell death (placenta cells): mainly by apoptosis rather than necrosis
- percentage of dead cells (HTR8 cells [6]): No significant changes
- percentage of live HTR8 cells (HTR8 cells [6]): significantly reduced
- percentage of apoptotic HTR8 cells (HTR8 cells [6]; Annexin V expression): significantly increased
- neutropenia occurrence [7]: 11%
- crown to rump length [8]: did not alter
- fetal weight [8]: did not alter
- fetal/placenta ratio [8]: did not alter
- litter size [8]: did not alter
- serum human chorionic gonadotropin (hCG) levels (placenta cells (JEG3); [9]): significantly reduced
- tumor volume over time (placenta cells (JEG3); [9]): dose dependently reduced tumor volume over time
- tumor weight (placenta cells (JEG3); [9]): significantly reduced tumor weight
- regressing placenta cells in xenografted SCID mice (placenta cells (JEG3); proposed, compared to methotrexate±gefitinib): more effective than methotrexate±gefitinib
- markers of apoptosis in human Fallopian tubes (human Fallopian tubes; preliminary data): does not upregulate markers of apoptosis
- BAX protein expression (human Fallopian tubes; [10]): no effect
- BCL 2 protein expression (human Fallopian tubes; [10]): no effect
